In ChEMBL document CHEMBL4765331, “Amides of pyrrole- and thiophene-fused anthraquinone derivatives: A role of the heterocyclic core in antitumor properties” (Eur J Med Chem, 2020):
Active and inactive are the calls of the source. The calls are words filed in the database; no cut-off is given here.

Assays:
K562 [1] = assay: Induction of apoptosis in human K562 cells assessed as late apoptotic cells at 1.6 uM measured after 48 hrs by Annexin V-APC/PI staining based flow cytometry assay (reference value: […]); format: functional
[2] = Selectivity index, ratio of IC50 for human TERT-RPE1 cells to IC50 for human NCI-H460 cells; format: toxicity; conditions: TERT-RPE1 cells and NCI-H460 cells, read-out: Ratio IC50
P388 [3] = assay: Antitumour activity against mouse P388 cells xenografted subcutaneously in BDF1 mouse assessed as inhibition of tumour growth at 20 mg/kg, ip administered qd for 5 days starting from day 1 of tumor cell inoculation and measured at day 18 post-tumor cell inoculation; format: functional; conditions: P388, 432 h, time 18 day, read-out: TGI
TERT-RPE1 = assay: Cytotoxicity against human TERT-RPE1 cells assessed as inhibition of cell proliferation measured after 72 hrs by MTT assay; format: cell-based; conditions: RPE-1, 72 h
K562 [4] = assay: Induction of cell cycle arrest in human K562 cells assessed as accumulation at G2/M phase at 2XIC50 measured after 48 hrs by propidium iodide/RNase staining based flow cytometry; format: functional
[5] = Selectivity index, ratio of IC50 for human TERT-RPE1 cells to IC50 for human CAPAN-1 cells
K562 [6] = assay: Induction of apoptosis in human K562 cells assessed as viable cells at 1.6 uM measured after 48 hrs by Annexin V-APC/PI staining based flow cytometry assay (reference value: 85.9%); format: functional; conditions: read-out: Activity
P388 [7] = assay: Antitumour activity against mouse P388 cells xenografted subcutaneously in BDF1 mouse assessed as inhibition of tumour growth at 60 mg/kg, ip administered qd for 5 days starting from day 1 of tumor cell inoculation and measured at day 18 post-tumor cell inoculation; format: functional; conditions: P388, 432 h, time 18 day, read-out: TGI
[8] = Drug uptake in mouse NIH3T3 cells assessed as compound localization in mitochondria at 1 uM measured after 15 mins by Mitotracker Green FM dye based laser scanning microscope; format: ADME; conditions: nih3t3, 0.25 h
[9] = Selectivity index, ratio of IC50 for human TERT-RPE1 cells to IC50 for human HL-60 cells; format: toxicity; conditions: TERT-RPE1 cells and HL-60 cells, read-out: Ratio IC50
P388 [10] = assay: Antitumour activity against mouse P388 cells xenografted subcutaneously in BDF1 mouse assessed as inhibition of tumour growth at 20 to 60 mg/kg, ip administered qd for 5 days starting from day 1 of tumor cell inoculation and measured at day 14 to 18 post-tumor cell inoculation; format: functional, organism-based; conditions: dose 20-60 mg/kg, time 14-18 day, TDE = time-dependent effect
[11] = biological target: T1, DNA topoisomerase 1 (Homo sapiens) (UniProt P11387); assay: Inhibition of human topoisomerase 1-mediated relaxation of supercoiled plasmid using pBR322 plasmid as substrate at 40 uM measured after 30 mins by ethidium bromide dye based agarose gel electrophoresis method
T1 sequence (whole entry): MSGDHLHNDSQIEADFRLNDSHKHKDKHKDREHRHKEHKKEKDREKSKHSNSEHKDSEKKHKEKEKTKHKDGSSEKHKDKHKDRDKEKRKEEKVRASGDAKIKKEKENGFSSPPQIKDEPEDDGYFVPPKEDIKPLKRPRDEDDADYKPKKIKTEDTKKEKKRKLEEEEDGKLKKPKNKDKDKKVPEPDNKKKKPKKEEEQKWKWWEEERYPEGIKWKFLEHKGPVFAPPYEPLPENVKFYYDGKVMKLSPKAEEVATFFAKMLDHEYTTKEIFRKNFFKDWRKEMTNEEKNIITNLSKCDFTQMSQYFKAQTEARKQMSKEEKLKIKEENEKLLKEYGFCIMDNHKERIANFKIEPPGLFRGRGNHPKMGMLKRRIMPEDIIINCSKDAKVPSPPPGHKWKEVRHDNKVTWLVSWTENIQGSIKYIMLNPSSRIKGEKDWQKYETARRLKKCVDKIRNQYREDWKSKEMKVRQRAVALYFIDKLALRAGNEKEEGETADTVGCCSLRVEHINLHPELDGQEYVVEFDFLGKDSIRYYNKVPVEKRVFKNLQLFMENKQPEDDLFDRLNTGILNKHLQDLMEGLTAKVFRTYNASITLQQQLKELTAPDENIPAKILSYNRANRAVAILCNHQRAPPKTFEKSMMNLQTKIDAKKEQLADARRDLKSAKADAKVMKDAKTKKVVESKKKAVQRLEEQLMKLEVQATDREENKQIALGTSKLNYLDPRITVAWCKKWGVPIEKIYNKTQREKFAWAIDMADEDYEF

K562 [12] = assay: Induction of cell cycle arrest in human K562 cells assessed as accumulation at G2/M phase at 2XIC50 measured after 24 hrs by propidium iodide/RNase staining based flow cytometry; format: functional
[13] = Drug uptake in mouse NIH3T3 cells assessed as compound localization in nucleus at 1 uM measured after 15 mins by laser scanning microscope; format: ADME, subcellular; conditions: nih3t3, 0.25 h
K562 [14] = assay: Induction of apoptosis in human K562 cells assessed as early apoptotic cells at 1.6 uM measured after 24 hrs by Annexin V-APC/PI staining based flow cytometry assay (reference value: 3.4%); format: functional
[15] = Toxicity in BDF1 mouse xenografted with mouse P388 cells assessed as lethality at 60 mg/kg, ip administered qd for 5 days; format: organism-based; conditions: in vivo, 120 h, dose 60 mg/kg/day, time 5 day
Calf thymus DNA [16] = assay: Binding affinity to calf thymus DNA assessed as dissociation constant by scatchard plot analysis; parameters: species or system Bos taurus
Calf thymus DNA [17] = assay: Binding affinity to calf thymus DNA assessed as binding constant by scatchard plot analysis; conditions: Bos taurus
Calf thymus DNA [18] = assay: Binding affinity to calf thymus double stranded DNA at 10 uM measured after 5 mins by flourescence spectroscopy method; conditions: Bos taurus
K562 [19] = assay: Induction of oxidative stress in human K562 cells assessed as increase in intracellular ROS generation at 1.6 uM measured after 40 mins by Deep Red dye based flow cytometry method; format: functional, cell-based
P388 [20] = assay: Antitumour activity against mouse P388 cells xenografted subcutaneously in ip dosed BDF1 mouse assessed as inhibition of tumour growth administered qd for 5 days starting from day 1 of tumor cell inoculation and measured at day 14 to 18 post-tumor cell inoculation; format: functional, organism-based; conditions: dose 20-60 mg/kg, time 14-18 day
K562 [21] = assay: Induction of apoptosis in human K562 cells assessed as early apoptotic cells at 1.6 uM measured after 48 hrs by Annexin V-APC/PI staining based flow cytometry assay (reference value: 3.4%); format: functional
P388 [22] = assay: Antitumour activity against mouse P388 cells xenografted intraperitoneally in BDF1 mouse assessed as […] T/C ratio at 20 mg/kg, ip administered qd for 5 days (reference value: 100%); format: functional; conditions: dose 20 mg/kg/day; time 5 day
HL-60 = assay: Antiproliferative activity against human HL-60 cells assessed as inhibition of cell proliferation measured after 72 hrs by MTT assay; format: functional, cell-based; conditions: HL-60, 72 h
NCI-H460 = assay: Antiproliferative activity against human NCI-H460 cells assessed as inhibition of cell proliferation measured after 72 hrs by MTT assay; format: functional, cell-based; conditions: NCI-H460, 72 h
K562 [23] = assay: Induction of apoptosis in human K562 cells assessed as late apoptotic cells at 1.6 uM measured after 24 hrs by Annexin V-APC/PI staining based flow cytometry assay (reference value: […]); format: functional

## Cc1[nH]c2c(O)c3c(c(O)c2c1C(=O)N1CC[C@H](N)C1)C(=O)c1ccccc1C3=O
K562 [1]
  Activity: 7.5%
[2]
  selectivity ratio: 18
P388 [3]
  inhibition in vivo at 20 mg/kg: 65%
TERT-RPE1
  IC50: 15.8 µM
K562 [4]
  Activity: Active
[5]
  Ratio IC50: 18
K562 [6]
  viability at 1.6 µM: 56.6%
P388 [7]
  inhibition in vivo at 60 mg/kg: 79%
[8]
  Drug uptake: Active
[9]
  selectivity ratio: 18
P388 [10]
  Activity: Tde
[11]
  inhibition: Active
K562 [12]
  Activity: Active
[13]
  Drug uptake: Active
K562 [14]
  Activity: 1.3%
[15]
  Activity: Non-Toxic
Calf thymus DNA [16]
  Kd: 0.7 µM
Calf thymus DNA [17]
  Kb: 14 10^5/M
Calf thymus DNA [18]
  Activity: Active
K562 [19]
  Activity: inactive
P388 [20]
  Activity: Dose-dependent effect
K562 [21]
  Activity: 0.9%
P388 [22]
  T/C: 153%
HL-60
  IC50: 0.9 µM
NCI-H460
  IC50: 0.9 µM
K562 [23]
  Activity: 8.3%
